From patent publication US20200206291A1, “COMPOSITION FOR PREVENTING OR TREATING OBESITY, COMPRISING SUPPLEMENT FOR REDUCING BODY FAT AND B-GLUCAN AS ACTIVE INGREDIENTS” (QUEGEN BIOTECH CO., LTD., priority 2017, published 2020)

Tests used:
Format in all cases: in vivo, C57BL/6 mice
[1] = Body weights and tissue weights of mice sacrificed after 28 weeks (Example 1, FIG. 3); settings: compared to Comparative Experimental Group 1-3 (PBS)
Experimental: (§1) Six-week-old wild-type C57BL/6 mice, to be subjected to body fat monitoring, were purchased, acclimated for 3 days and then raised. Schizophyllum commune-derived β-glucan (SPG with the structure of β-(1,6)-branched (1,3)-glucan; Quegen Biotech Co., Ltd.) and a phosphate buffer solution (PBS) were orally administered as test drugs in combination or independently once every day. Specifically, 0.2 mL of CLA (concentration=10 mg/mL), and after 30 minutes, 0.2 mL of Schizophyllum commnune-derived β-glucan (SPG with the structure of β-(1,6)-branched (1,3)-glucan; concentration=0.4 mg/mL) were orally administered to Experimental Group 1-1. In addition, 0.2 mL of CLA (concentration=10 mg/mL), and after 30 minutes, 0.2 mL of Schizophyllum commune-derived β-glucan (SPG with the structure of β-(1,6)-branched (1,3)-glucan; concentration=2 mg/mL) were orally administered to Experimental Group 1-2. Meanwhile, 0.2 mL of CLA (concentration=10 mg/mL) was orally administered to Comparative Experimental Group 1-1. In addition, 0.2 mL of Schizophyllum commune-derived β-glucan (SPG with the structure of β-(1,6)-branched (1,3)-glucan; concentration=2 mg/mL) was orally administered to Comparative Experimental Group 1-2, and 0.2 mL of PBS was orally administered to Comparative Experimental Group 1-3.
In addition, in Experimental Groups 1-1 and 1-2 and Comparative Experimental Groups 1-1 to 1-3, the mice were sacrificed after 28 weeks of administering the test drugs, and then body weights and tissue weights thereof measured, and the result is shown in FIG. 3.

[2] = Summary of the animal tests: supplement for reducing body fat and β-glucan, alone or co-administered; settings: administered alone
Experimental: as §1
(§2) Six-week-old wild-type C57BL/6 mice, to be subjected to body fat monitoring, were purchased, acclimated for 3 days and then raised. HCA (Sigma-Aldrich), Schizophyllum commune-derived β-glucan (SPG with the structure of β-(1.6)-branched (1,3)-glucan; Quegen Biotech Co., Ltd.) and a phosphate buffer solution (PBS) were orally administered as test drugs in combination or independently once every day. Specifically, 0.2 mL of HCA (concentration=10 mg/mL), and after 30 minutes, 0.2 mL of Schizophyllum commune-derived β-glucan (SPG with the structure of β-(1,6)-branched (1,3)-glucan; concentration=0.4 mg/mL) were orally administered to Experimental Group 2-1. In addition, 0.2 mL of HCA (concentration=10 mg/mL), and after 30 minutes, 0.2 mL of Schizophyllum commune-derived β-glucan (SPG with the structure of β-(1,6)-branched (1,3)-glucan; concentration=2 mg/mL) were orally administered to Experimental Group 2-2. Meanwhile, 0.2 mL of HCA (concentration=10 mg/mL) was orally administered to Comparative Experimental Group 2-1. In addition, 0.2 mL of Schizophyllum commune-derived β-glucan (SPG with the structure of 3-(1.6)-branched (1,3)-glucan:concentration=2 mg/mL) was orally administered to Comparative Experimental Group 2-2, and 0.2 mL of PBS was orally administered to Comparative Experimental Group 2-3.

[3] = Body weight of mice measured every week for 20 weeks, HCA with or without SPG (Example 2, FIG. 5); settings: oral, weekly over 20 weeks; compared to Comparative Experimental Group 2-3 (PBS)
Experimental: as §2, with “In addition, 0.2 mL of Schizophyllum commune-derived β-glucan (SPG with the structure of 3-(1.6)-branched (1,3)-glucan:concentration=2 mg/mL) was orally administered to Comparative Experimental Group 2-2, and 0.2 mL of PBS was orally administered to Comparative Experimental Group 2-3.” left out
Specifically, in Experimental Groups 2-1 and 2-2 and Comparative Experimental Groups 2-1 to 2-3, the body weights of the mice were measured every week for 20 weeks after the start of administration of the test drugs, and the result is shown in FIG. 5.

[4] = Body weight of mice measured every week for 28 weeks, CLA with or without SPG (Example 1, FIG. 2); settings: oral, weekly over 28 weeks; compared to Comparative Experimental Group 1-3 (PBS)
Experimental: as §1, with “In addition, 0.2 mL of Schizophyllum commune-derived β-glucan (SPG with the structure of β-(1,6)-branched (1,3)-glucan; concentration=2 mg/mL) was orally administered to Comparative Experimental Group 1-2, and 0.2 mL of PBS was orally administered to Comparative Experimental Group 1-3.” left out
Specifically, in Experimental Groups 1-1 and 1-2 and Comparative Experimental Groups 1-1 to 1-3, the body weights of the mice were measured every week for 28 weeks after the start of administration of the test drugs, and the result is shown in FIG. 2.

[5] = Body weights and tissue weights of mice sacrificed after 20 weeks (Example 2, FIG. 6); settings: compared to Comparative Experimental Group 2-3 (PBS)
Experimental: as §2
In addition, in Experimental Groups 2-1 and 2-2 and Comparative Experimental Groups 2-1 to 2-3, the mice were sacrificed after 20 weeks of administering the test drugs, and then body weights and tissue weights thereof measured, and the result is shown in FIG. 6.

[6] = Serum analysis of mice sacrificed after 28 weeks (Example 1, FIG. 4); settings: compared to Comparative Experimental Group 1-3 (PBS)
Experimental: as §1
In addition, in Experimental Groups 1-1 and 1-2 and Comparative Experimental Groups 1-1 to 1-3, the mice were sacrificed after 28 weeks of administering the test drugs, and then subjected to serum analysis, and the result is shown in FIG. 4.

[7] = Serum analysis of mice sacrificed after 20 weeks (Example 2, FIG. 7); settings: compared to Comparative Experimental Group 2-3 (PBS)
Experimental: as §2, with “2-3. In addition, in Experimental Groups 2-1 and 2-2 and Comparative Experimental Groups 2-1 to 2-3, the mice were sacrificed after 20 weeks of administering the test drugs, and then subjected to serum analysis, and the result is shown in FIG. 7.” for “2-3.”

| Compound | body weight at sacrifice [1] | tissue weight of each organ [1] | weight loss effect [2] | body weight as the period of administering the test drugs progressed [3] | body weight as the period of administering the test drugs progressed [4] | body weight at sacrifice [5] | tissue weight of each organ [5] | tissue weight of the liver [1] | free fatty acid content (serum) [6] | liver damage (serum analysis) [6] | total cholesterol content in blood [6] | triglyceride content (serum) [6] | side effects (hepatotoxicity, increase in blood cholesterol level) [2] | free fatty acid content (serum) [7] | liver damage (serum analysis) [7] | total cholesterol content in blood [7] | triglyceride content (serum) [7] | tissue weight of the liver [5] |
| --- | --- | --- | --- | --- | --- | --- | --- | --- | --- | --- | --- | --- | --- | --- | --- | --- | --- | --- |
| β-(1,6)-branched (1,3)-glucan [Comparative Experimental Group 1-2] | almost no change | almost no change | does not exhibit a significant weight loss effect | no change in body weight | no change in body weight | almost no change | almost no change | – | – | – | – | – | – | – | – | – | – | – |
| conjugated linoleic acid [Comparative Experimental Group 1-1] | greatly decreased | greatly decreased | a weight loss effect caused by reduced body fat is exhibited | – | greatly decreased in body weight | – | – | rather increased in tissue weight of the liver | decreased by more than half | had liver damage | increased in total cholesterol content in blood | decreased by more than half | side effects caused by hepatotoxicity and an increase in blood cholesterol level are problematic | – | – | – | – | – |
| O=C(O)CC(O)(C(=O)O)C(O)C(=O)O (stereo not drawn) [Comparative Experimental Group 2-1, hydroxycitric acid] | – | – | a weight loss effect caused by reduced body fat is exhibited | greatly decreased in body weight | – | greatly decreased | greatly decreased | – | – | – | – | – | side effects caused by hepatotoxicity and an increase in blood cholesterol level are problematic | decreased by more than half | had liver damage | increased in total cholesterol content in blood | decreased by more than half | rather increased in tissue weight of the liver |
